Laboratory results taken from patent EP1531819B1, “USE OF I kappa B KINASE INHIBITORS FOR THE TREATMENT OF PAIN” (Sanofi-Aventis Deutschland GmbH, priority 2002, dated 2004).

Columns and labels:
[1] = tested on: Kaolin/Carrageenan induzierte Kniegelenksentzündung bei der Ratte; assay: Model 2: kaolin/carrageenan-induced knee joint inflammation, responses of spinal neurons to pressure on the knee; assay type: in vivo
Excerpt: Modell: Zymosan-induzierte Pfotenentzündung bei der Ratte; Parameter: Pfotenwegziehzeit oder Pfotenwegziehschwelle bei thermischer oder mechanischer Stimulation der Hinterpfote. • 2. Modell: Kaolin/Carrageenan induzierte Kniegelenksentzündung bei der Ratte; Parameter: Reaktion spinaler Neurone bei Druckreizung des Knies.
Versuchsdurchführung: Bei Ratten wurde in Trapanal-Narkose der Wirbelkanal eröffnet und Rückenmarksneurone, die "Schmerzimpulse" aus dem Kniegelenk verarbeiteten, identifiziert. Nach Identifizierung wurde eine Langzeitableitung durchgeführt, in der die Aktivität der Nervenzelle vor und während der Entwicklung einer akuten Entzündung im Kniegelenk registriert wurde. Dazu wurden in einer Kontrollperiode vor Induktion der Entzündung und nach Induktion der Entzündung für mehrere Stunden die Antworten auf nicht noxische und noxische Reizung am Kniegelenk gemessen.
Die akute Entzündung wurde durch die intraartikuläre Injektion einer Kaolin und Carrageenan Suspension (etwa 150 µl) induziert. In Kontrollexperimenten wurde nur das Vehikel auf die Rückenmarksoberfläche aufgebracht, um die Entwicklung der Übererregbarkeit unter Kontrollbedingungen darzustellen. In der Regel fand diese Entwicklung der Übererregbarkeit innerhalb von 2 bis 4 Stunden statt, und sie äußerte sich in einer starken Zunahme der Antworten auf nicht noxische und noxische Reizung des Kniegelenks (Tab. 3). […] Dann wurden die Antworten der Zelle auf nichtnoxische und noxische Reizung wie in den Kontrollexperimenten weiter verfolgt.

[2] = tested on: Zymosan-induzierte Pfotenentzündung bei der Maus; assay: Model 3: zymosan-induced paw inflammation, paw withdrawal latency on thermal stimulation (Hargreaves Test), AUC; assay type: in vivo; conditions: for AUC Mittelwert [Maß für Hyperalgesie]: thermische Hyperalgesie
Description: Parameter: Pfotenwegziehzeit bei thermischer Stimulation der Hinterpfote. Versuchsdurchführung: In Kurzzeitnarkose mit Isofluran wurde dem Versuchstier 25 μl einer Suspension, die 50 mg/ml Zymosan enthielt, in die rechte Hinterpfote injiziert. Dann wurde die […] quantitativ wie folgt bestimmt: Bestimmung der Pfotenwegziehzeit bei thermischer Stimulation (Hargreaves Test; s.o.). Das Versuchstier wurde in […] Versuchstier nach der Erkundungsphase (etwa 5 min) nicht mehr bewegte, wurde […] zu stimulierenden Hinterpfote positioniert und […]. Die […] ab, so dass die Hauttemperatur […] linear […] Pfote […] ab. Die Pfotentemperatur zum Zeitpunkt des Wegziehens ist für das Tier gerade eben unangenehm, […] von thermischer Schmerzschwelle. Kurz vor Zymosan-Injektion und für 7 bis 14 Tage nach Injektion wurde […] an der rechten und linken Hinterpfote bestimmt. Anschließend wurde […] Integral der Fläche, die aus […] und […] Pfote gebildet wurde, bestimmt (AUC, area between the curves, s. Tabellen 5 und 6). Je größer dieser Wert ist, umso […], und je kleiner der Wert bei Tieren, die die Substanz erhalten, desto stärker ist der Therapieerfolg. In einer 7-Tage Studie induzierte die Zymosan Injektion in […], Tab. 5). In den anderen Gruppen wurde die Substanzgabe einen Tag nach Zymosan Injektion, […] schon […]. […] Die […] Studie (7 Tage) ergab, dass die AUC unter Substanzgabe dosisabhängig abnahm. […] In einer parallel […] von Tieren wurde Paracetamol in einer sehr hohen Dosis ebenfalls zweimal am Tag verabreicht. […] Paracetamol (Tab. 5). […] […] Zymosan Injektion und Dosierschema […] zuvor beschriebenen Studie. Einziger Unterschied war, dass die weitere Studie über 14 Tage lief.

[3] = tested on: Zymosan-induzierte Pfotenentzündung bei der Maus; assay: Model 4: zymosan-induced paw inflammation, spontaneous running wheel performance, AUC; assay type: in vivo, C57/B6 Mäuse
Excerpt: Das Versuchstier hat in seinem Haltungskäfig Zugang zu einem Laufrad, dessen Umdrehungen elektronisch registriert werden. Die C57/B6 Mäuse benutzen in den Nachtstunden freiwillig das Laufrad und legen im Mittel nach einer einwöchigen Gewöhnungsphase 4100 Meter/Nacht zurück. Nach Zymosan Injektion ist die nächtliche Laufstrecke verkürzt. Diese Abnahme der Laufleistung gilt als Parameter für entzündungsschmerzbedingte Funktionseinschränkung. Versuchsdurchführung: Die Laufstrecke/24 Std. wurde nach einer Eingewöhnungsphase eine Woche lang zur Bestimmung der Baseline gemessen. Dann wurde in Kurzzeitnarkose mit Isofluran dem Versuchstier 25 µl einer Suspension, die […] Zymosan enthielt, in die rechte Hinterpfote injiziert. Anschließend wurde Laufstrecke/24 Std. während der nächsten sieben Tage ermittelt. In der Auswertung wurde die Fläche unter der Kurve der Laufstreckenwerte bestimmt (AUC, Tab. 7): je kleiner die AUC, desto geringer die Laufleistung in der Woche nach Zymosan Injektion. […] Die Substanzgabe wurde am Tag 1 nach Zymosan Injektion begonnen.

[4] = Versuch 1, 30-60 min nach K/C-Injektion
[5] = Versuch 1, 60-120 min nach K/C-Injektion
[6] = Versuch 1, 120-180 min nach K/C-Injektion
[7] = Versuch 2, 30-60 min nach K/C-Injektion
[8] = Versuch 2, 120-180 min nach K/C-Injektion
[9] = Versuch 2, 180-240 min nach K/C-Injektion
[10] = 7 days after Zymosan, 200 mg/kg twice daily

2-(2-Methylamino-pyrimidin-4-yl)-1 H-benzoimidazol-5-carbonsäure ((S)1-carbamoyl-2- diphenylamin-ethyl)-amid [Verbindung 22]
Wirkung im Modell 2 [1]: gute Wirkung
Neuronale Antworten vor und während Kniegelenksentzündung, Nicht-noxische Reizung am Kniegelenk [1, 4]: -34,1 imp/15s
Neuronale Antworten vor und während Kniegelenksentzündung, Noxische Reizung am Kniegelenk [1, 4]: -109,1 imp/15s
Neuronale Antworten vor und während Kniegelenksentzündung, Nicht-noxische Reizung am Kniegelenk [1, 5]: -37,2 imp/15s
Neuronale Antworten vor und während Kniegelenksentzündung, Noxische Reizung am Kniegelenk [1, 5]: -101,1 imp/15s
Neuronale Antworten vor und während Kniegelenksentzündung, Nicht-noxische Reizung am Kniegelenk [1, 6]: -32,1 imp/15s
Neuronale Antworten vor und während Kniegelenksentzündung, Noxische Reizung am Kniegelenk [1, 6]: -37,8 imp/15s
Neuronale Antworten vor und während Kniegelenksentzündung, Nicht-noxische Reizung am Kniegelenk ([1]; Versuch 1, Baseline): 0 imp/15s
Neuronale Antworten vor und während Kniegelenksentzündung, Noxische Reizung am Kniegelenk ([1]; Versuch 1, Baseline): 0 imp/15s
Neuronale Antworten vor und während Kniegelenksentzündung, Nicht-noxische Reizung am Kniegelenk [1, 7]: -30,6 imp/15s
Neuronale Antworten vor und während Kniegelenksentzündung, Noxische Reizung am Kniegelenk [1, 7]: -9,2 imp/15s
Neuronale Antworten vor und während Kniegelenksentzündung, Nicht-noxische Reizung am Kniegelenk [1, 8]: 50,3 imp/15s
Neuronale Antworten vor und während Kniegelenksentzündung, Noxische Reizung am Kniegelenk [1, 8]: 60 imp/15s
Neuronale Antworten vor und während Kniegelenksentzündung, Nicht-noxische Reizung am Kniegelenk [1, 9]: 68,7 imp/15s
Neuronale Antworten vor und während Kniegelenksentzündung, Noxische Reizung am Kniegelenk [1, 9]: 96,7 imp/15s
Neuronale Antworten vor und während Kniegelenksentzündung, Nicht-noxische Reizung am Kniegelenk ([1]; Versuch 2, Baseline): 0 imp/15s
Neuronale Antworten vor und während Kniegelenksentzündung, Noxische Reizung am Kniegelenk ([1]; Versuch 2, Baseline): 0 imp/15s

CC(=O)Nc1ccc(O)cc1 [Paracetamol, reference compound]
Statistischer Unterschied gegenüber Vehikel ([2]; thermische Hyperalgesie AUC, 7 days, 200 mg/kg twice daily): ja
AUC Mittelwert [Maß für Hyperalgesie] [2, 10]: 24.6
AUC Mittelwert (Laufradaktivität) [3, 10]: 187.2
Laufleistung nach Zymosan Injektion gegenüber der Vehikelgruppe ([3]; 7 days, twice daily): keine Verbesserung gegenüber der Vehikelgruppe
Statistischer Unterschied gegenüber Vehikel ([3]; Laufradaktivität AUC, 7 days, 200 mg/kg twice daily): nein

Cc1ccc(-c2cc(C(F)(F)F)nn2-c2ccc(S(N)(=O)=O)cc2)cc1 [Celecoxib, reference compound]
AUC Mittelwert [Maß für Hyperalgesie] ([2]; 14 days after Zymosan, 25 mg/kg twice daily): 51.5
